The results in this text go back to US10912740B2, “Treating hepatitis C with cannabidiol” (Vilotos Pharmaceuticals, Inc., priority 2017, dated 2021).

The subject of series [1] is HBV. The series can be described thus: Anti-hepatitis B assay: extracellular HBV DNA by TaqMan PCR from HepG2 2.2.15 cells. The format is cell-based, Hepatitis B virus (wild-type ayw1 strain). As to conditions: for Percentage virus inhibition: HBV, HepG2 2.2.15 cells, six days. The source says:
(§1) The pure cannabis cannabinoid CBD of FIG. 2 was subjected to a modified anti-hepatitis B assay. [Korba B E, Gerin J L, Use Of A Standardized Cell Culture Assay To Assess Activities Of Nucleoside Analogs Against Hepatitis B Virus Replication, Antiviral Res, 19:55-70 (1992); Korba B E, Milman G., A Cell Culture Assay For Compounds Which Inhibit Hepatitis B Virus Replication, Antiviral Res 1991; 15:217-28]. The modifications allowed use in real time quantitative polymerase chain reaction (PCR) (TaqMan) to measure extracellular HBV DNA copy number associated with virions released from HepG2 2.2.15 cells. The HepG2 2.2.15 cell line is a stable cell line producing high levels of the wild-type ayw1 strain of HBV. Antiviral compounds blocking any later step of viral replication such as transcription, translation, pregenomeencapsidation, reverse transcription, particle assembly, and release can be identified and characterized using this cell line. In brief, HepG2 2.2.15 cells are plated in 96-well microtiter plates. Only the interior wells were utilized to reduce “edge effects” observed during cell culture; the exterior wells were filled with complete medium to help minimize sample evaporation. After incubation with 5% CO2 atmosphere at 37° C. for 16-24 h, the confluent monolayer of HepG2 2.2.15 cells was washed and the medium was replaced with complete medium containing test compounds at a single concentration of 10 μM. Three days later, the culture medium was replaced with fresh medium and test compounds at a single concentration of 10 μM. Six days following the initial administration of the test compounds, the cell culture supernatant was collected, treated with pronase and DNAse, and then used in a real-time quantitative TaqMan PCR assay. Antiviral activity was determined by calculating the reduction in HBV DNA levels compared to untreated virus control samples. Compound cytotoxicity was determined using MTS (CellTiter 96 Reagent, Promega) to measure cell viability as described above.
(Quantitative PCR measures a nucleic acid by following its amplification.)

Series [2] can be described thus: Compound cytotoxicity (MTS cell viability) in the anti-hepatitis B assay. The class given is cell-based. As to conditions: human, HepG2 2.2.15 cells (stable HBV-producing line), HBV assay, HepG2 2.2.15 cells.
Text: as §1

The test system of series [3] is HepG2 2.2.15 cells. The series is described as above. The format is cell-based. As to conditions: cells used to culture HBV.
Text: as §1

The subject of series [4] is HCVcc. The series can be described thus: Anti hepatitis C activity assay: HCVcc infectivity in Huh7.5 cells, luciferase readout, single dose. The format is cell-based, Hepatitis C virus. Here is the method:
(§2) Huh7.5 cells are grown in Dulbecco's modified essential media (DMEM), 10% fetal bovine serum (FBS), 1% penicillin-streptomycin (pen-strep), 1% Non-essential amino acids (NEAA) in a 5% CO2 incubator at 37° C. Huh7.5 cells were seeded at 1×10^4 cells per well into 96-well plates according to Southern Research Institute standard format. The test article was serially diluted with DMEM plus 5% FBS. The diluted compound in the amount of 50 μl was mixed with equal volume of cell culture-derived HCV (HCVcc), then applied to appropriate wells in the plate. Human interferon alpha-2b (rIFNα-2b) was included as a positive control compound. After 72 hr incubation at 37° C., the cells were lysed for measurement of luciferase activity using Renilla Luciferase Assay System (Promega) according to manufacturer's instruction. The number of cells in each well were determined by CytoTox-1 reagent (Promega). Test articles were tested with 6 serial dilution in triplicate to derive, if applicable, IC50 and IC90 (concentration inhibiting HCVcc infectivity by 50% and 90%, respectively), TC50 (concentration decreasing cell viability by 50%) and SI (selective index: TC50/IC50) values. In the replicon assay, Sub-confluent cultures of the ET line were plated out into 96-well plates that are dedicated for the analysis of cell numbers (cytotoxicity) or antiviral activity and the next day drugs were added to the appropriate wells. Cells were processed 72 hours later when the cells were still sub-confluent. After six half-log serial dilutions of the compound, the applicable EC50 (concentration inhibiting HCV replicon by 50%), EC90 (concentration inhibiting HCV replicon by 90%), IC50 (concentration decreasing cell viability by […]) and SI (selective index: […]) values were derived. HCV replicon levels are assessed as replicon derived Luc activity. The toxic concentration of drug that reduced cell numbers was assessed by the CytoTox-1 cell proliferation assay (Promega), a fluorometric assay of cell numbers (and cytotoxicity). […]

Series [5] in a line: Cytotoxicity (CytoTox-1 cell number) in the HCVcc assay. The class given is cell-based. Particulars: human, Huh7.5 cells infected with HCVcc; HCVcc assay, Huh7.5 cells; CBD at 10 μM. Here is the method: (§3) Huh7.5 cells are grown in Dulbecco's modified essential media (DMEM), 10% fetal bovine serum (FBS), 1% penicillin-streptomycin (pen-strep), 1% Non-essential amino acids (NEAA) in a 5% CO2 incubator at 37° C. Huh7.5 cells were seeded at 1×10^4 cells per well into 96-well plates according to Southern Research Institute standard format. The test article was serially diluted with DMEM plus 5% FBS. The diluted compound in the amount of 50 μl was mixed with equal volume of cell culture-derived HCV (HCVcc), then applied to appropriate wells in the plate. Human interferon alpha-2b (rIFNα-2b) was included as a positive control compound. After 72 hr incubation at 37° C., the cells were lysed for measurement of luciferase activity using Renilla Luciferase Assay System (Promega) according to manufacturer's instruction. The number of cells in each well were determined by CytoTox-1 reagent (Promega). […] HCV replicon levels are assessed as replicon derived Luc activity. The toxic concentration of drug that reduced cell numbers was assessed by the CytoTox-1 cell proliferation assay (Promega), a fluorometric assay of cell numbers (and cytotoxicity). […]

Series [6] deals with Huh7.5 cells. The series is described as above. The class given is cell-based. As to conditions: cells used to culture HCV. The protocol: as §3
Series [7] has as its system hepatitis C virus. The series can be described thus: Dose-response assay against hepatitis C virus (EC50). The format is cell-based. As to conditions: for EC50: Hepatitis C virus, read-out: ES50 (EC50 against hepatitis C virus). Here is the method:
as §2

Series [8] can be described thus: Cytotoxicity (CC50) in the HCV dose-response assay. The format is cell-based. As to conditions: human, Huh7.5 cells. Here is the method: as §3

Entries after “also recorded” stand apart in the source; their conditions may differ.

What is called inhibition is the percentage by which the read-out fell short of the control. As a reminder, the EC50 is the concentration at which the effect is half-maximal. By CC50 is commonly meant the concentration at which the toxic effect on the cells reaches its halfway point. The low end stands for harm at low concentration, the high end for better tolerance by the cells. `C=C(C)[C@@H]1CCC(C)=C[C@H]1c1c(O)cc(CCCCC)cc1O` [CBD, Cannabidiol]: the Percentage virus inhibition in series [1] (CBD at single dose 10 (title uM, row head pM)) came out at 0%; in series [4] (HCVcc, CBD at single concentration 10 μM, Huh7.5 cells, 72 hr, 10 µM), 84.6%. For the same compound, the “Activity against HBV in vitro / inhibition of viral replication (in words)” value in series [1] (in vitro, single-dose assay) was “not against HBV; also recorded: not active”. The compound also registered a cytotoxicity at 6 days, 10 µM in series [2] (CBD at 10 (title uM, row head pM)) of 65.7%. The “Cytotoxicity against HepG2 2.2.15 cells (in words)” value in series [3] was “significant cytotoxicity”. Also, the inhibition at 10 µM in series [4] (Hepatitis C virus, Huh7.5, 72 h, HCVcc, CBD at single concentration 10 μM, Huh7.5 cells, 72 hr, read-out: Percentage virus inhibition) amounted to 86.4%. Besides, the “Activity against HCV in vitro / inhibition of viral replication (in words)” value in series [4] (in vitro, single-dose assay) was “active against HCV”. Further, the cytotoxicity at 72 h, 10 µM in series [5] worked out at 2.7%. The “Toxicity against Huh7.5 cells (in words)” value in series [6] is given as “minimal toxicity”. Also, the EC50 in series [7] was determined as 3.16 µM. In addition, the “Inhibition of the HCV virus in the dose-response assay (in words)” value in series [7] (dose-response assay (Table 2)) is given as “dose-dependent inhibition”. This compound also came in with a 50% cytotoxic concentration (CC50) at 72 h in series [8] of 15.7 ± 0.25 µM.
As for `Nc1ccn([C@@H]2CS[C@H](CO)O2)c(=O)n1` [Lamivudine, reference compound], the Percentage virus inhibition in series [1] (Lamivudine at 2 (row head pM)) was 97.7%. The compound further displayed a cytotoxicity at 6 days, 2 µM (printed pM) in series [2] (Lamivudine at 2 (row head pM)) of 0%.
Turning to `CC(C)OC(=O)[C@H](C)N[P@](=O)(OC[C@H]1O[C@@H](n2ccc(=O)[nH]c2=O)[C@](C)(F)[C@@H]1O)Oc1ccccc1` [Sofosbuvir, reference compound], the half-maximal effective concentration (EC50) in series [7] was found to be 0.055 ± 0.0104 µM. Further, in series [8], the CC50 at 72 h is above 10 µM.
